Reference: ChEMBL document CHEMBL2375240, “The alpha-carbonic anhydrase from the thermophilic bacterium Sulfurihydrogenibium yellowstonense YO3AOP1 is highly susceptible to inhibition by sulfonamides” (Bioorg Med Chem, 2013)
pKi: −log10 of the molar value.

Target: Carbonic anhydrase 1 (Homo sapiens, UniProt P00915)
Sequence (P00915 whole entry): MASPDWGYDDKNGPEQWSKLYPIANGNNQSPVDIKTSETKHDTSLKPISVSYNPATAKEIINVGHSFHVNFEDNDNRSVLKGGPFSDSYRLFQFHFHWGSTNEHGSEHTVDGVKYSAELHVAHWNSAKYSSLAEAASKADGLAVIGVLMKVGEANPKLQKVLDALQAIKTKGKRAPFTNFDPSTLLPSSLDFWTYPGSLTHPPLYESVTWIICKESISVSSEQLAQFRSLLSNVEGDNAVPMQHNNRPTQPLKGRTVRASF

pKi	SMILES
6.73	Cn1nc(S(N)(=O)=O)s/c1=N/S(=O)(=O)c1ccc(N)cc1
7.26	Nc1ccc2nc(S(N)(=O)=O)sc2c1
4.64	NS(=O)(=O)c1nc2ccc(OCCO)cc2s1
